In the supplement of paper PMC11451515:

System: NOMO1
Test: cell viability relative to DMSO control; higher = less cytotoxic
Details: 48 h
Procedure, shortened: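 Three leukemia lines were tested: NOMO1 and SEM at 500 cells/well and P12-Ichikawa at 1000 cells/well. Each was adapted for at least four passages in each medium and seeded in 5 μl in 1536-well plates, and library compounds in DMSO were pin-dosed from 47 μM to 0.79 nM in 11 threefold steps. After 48 h at 37°C, CellTiter-Glo One luminescence was read. Viability is a percentage relative to DMSO wells on each plate, with cell-free wells as background.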

[1] = HPLM + 10% dialyzed FBS, 0.000781 µM
[2] = HPLM + 10% dialyzed FBS, 0.00234 µM
[3] = HPLM + 10% dialyzed FBS, 0.00702 µM
[4] = HPLM + 10% dialyzed FBS, 0.0211 µM
[5] = HPLM + 10% dialyzed FBS, 0.0632 µM
[6] = HPLM + 10% dialyzed FBS, 0.19 µM
[7] = HPLM + 10% dialyzed FBS, 0.569 µM
[8] = HPLM + 10% dialyzed FBS, 1.71 µM
[9] = HPLM + 10% dialyzed FBS, 5.12 µM
[10] = HPLM + 10% dialyzed FBS, 15.4 µM
[11] = HPLM + 10% dialyzed FBS, 46.1 µM
[12] = RPMI 5 mM glucose + 10% FBS, 0.000781 µM
[13] = RPMI 5 mM glucose + 10% FBS, 0.00234 µM
[14] = RPMI 5 mM glucose + 10% FBS, 0.00702 µM
[15] = RPMI 5 mM glucose + 10% FBS, 0.0211 µM
[16] = RPMI 5 mM glucose + 10% FBS, 0.0632 µM
[17] = RPMI 5 mM glucose + 10% FBS, 0.19 µM
[18] = RPMI 5 mM glucose + 10% FBS, 0.569 µM
[19] = RPMI 5 mM glucose + 10% FBS, 1.71 µM
[20] = RPMI 5 mM glucose + 10% FBS, 5.12 µM
[21] = RPMI 5 mM glucose + 10% FBS, 15.4 µM
[22] = RPMI 5 mM glucose + 10% FBS, 46.1 µM

Structure (SMILES)	cell viability [1]	cell viability [2]	cell viability [3]	cell viability [4]	cell viability [5]	cell viability [6]	cell viability [7]	cell viability [8]	cell viability [9]	cell viability [10]	cell viability [11]	cell viability [12]	cell viability [13]	cell viability [14]	cell viability [15]	cell viability [16]	cell viability [17]	cell viability [18]	cell viability [19]	cell viability [20]	cell viability [21]	cell viability [22]	cell viability (RPMI 5 mM glucose + 10% dialyzed FBS, 0.000781 µM)	cell viability (RPMI 5 mM glucose + 10% dialyzed FBS, 0.00234 µM)	cell viability (RPMI 5 mM glucose + 10% dialyzed FBS, 0.00702 µM)	cell viability (RPMI 5 mM glucose + 10% dialyzed FBS, 0.0211 µM)	cell viability (RPMI 5 mM glucose + 10% dialyzed FBS, 0.0632 µM)	cell viability (RPMI 5 mM glucose + 10% dialyzed FBS, 0.19 µM)	cell viability (RPMI 5 mM glucose + 10% dialyzed FBS, 0.569 µM)	cell viability (RPMI 5 mM glucose + 10% dialyzed FBS, 1.71 µM)	cell viability (RPMI 5 mM glucose + 10% dialyzed FBS, 5.12 µM)	cell viability (RPMI 5 mM glucose + 10% dialyzed FBS, 15.4 µM)	cell viability (RPMI 5 mM glucose + 10% dialyzed FBS, 46.1 µM)
C[C@]\1(CCS\C(=N1)N)C2=CC(=C(F)C=C2F)C3=CN=CN=C3	95.4%	106%	103%	95.2%	118%	112%	98.2%	91.3%	38.1%	25%	3.54%	105%	107%	101%	100%	98%	101%	100%	60.6%	20.3%	20.1%	15%	80.4%	107%	98.5%	103%	109%	106%	100%	96.2%	26.4%	19.8%	22.5%
Fc1ccc(C(c2ccc(F)cc2)N2CCN(C/C=C/c3ccccc3)CC2)cc1	115%	123%	144%	135%	117%	121%	104%	103%	105%	112%	95.9%	112%	111%	106%	123%	113%	114%	107%	107%	108%	115%	104%											
